Where “and” joins values, the source holds several entries; their conditions need not be identical. Equal entries are not always repeated.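 Where inhibition never reached the appropriate level, the endpoint shown equals the highest concentration tested. Otherwise, values were interpolated linearly from a five-concentration, 48-hour dose response in 96-well plates. GI50 = concentration required for 50% inhibition of growth. At the TGI there is no net growth.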

The values below come from PubChem BioAssay (NCI).

Test systems include HOP-62 NSCLC; MDA-MB-435; U251 CNS; LOX IMVI melanoma; KM12 colon; BT-549 breast; SK-OV-3 ovarian; UACC-257 melanoma; HT29 colon; DU-145 prostate; MDA-MB-231 breast; UACC-62 melanoma; SN12C renal; SK-MEL-5 melanoma; HS 578T breast.
Common to all, as to assay: DTP human tumour cell line panel, 48 h

As for `O=C(O)c1ccccc1C(=O)Nn1cnnc1`, the TGI in the test with HOP-62 NSCLC, with MDA-MB-435, in the test on U251 CNS, in the test on LOX IMVI melanoma, with KM12 colon and with BT-549 breast was more than 100 µM throughout. The TGI with SK-OV-3 ovarian, with UACC-257 melanoma, in the test with HT29 colon, in the test on DU-145 prostate, with MDA-MB-231 breast and in the test on UACC-62 melanoma was more than 100 µM each time. The TGI with SN12C renal and in the test on SK-MEL-5 melanoma was more than 100 µM throughout.
`Cn1c(Nc2ccccc2)c(C=Nc2ccccc2)c(=O)n(C)c1=O`: the TGI (in general, the concentration giving total growth inhibition) in the test with HOP-62 NSCLC is 79.7 µM; in the test with MDA-MB-435 it was more than 100 µM; in the test with U251 CNS, more than 100 µM; with LOX IMVI melanoma, more than 100 µM; with KM12 colon, more than 100 µM; with BT-549 breast, more than 100 µM. Moreover, the concentration for total growth inhibition (TGI) in the test with SK-OV-3 ovarian, in the test on UACC-257 melanoma, in the test with HT29 colon, with DU-145 prostate, in the test on MDA-MB-231 breast and in the test on UACC-62 melanoma was more than 100 µM in each case. The molecule further returned a TGI in the test on SN12C renal of more than 100 µM.
For the molecule `COC(=O)C(=O)C(C(=O)C(=O)Nc1ccccc1C(C)=O)c1nc2ccc(C(=O)c3ccccc3)cc2[nH]c1=O` (stereo unspecified), the TGI in the test with HOP-62 NSCLC, in the test with LOX IMVI melanoma, in the test with KM12 colon, in the test on BT-549 breast, with SK-OV-3 ovarian and in the test with UACC-257 melanoma was more than 100 µM each time. For the same molecule, the TGI with HT29 colon, in the test on HS 578T breast, in the test with MDA-MB-231 breast, with UACC-62 melanoma, in the test on SN12C renal and with SK-MEL-5 melanoma was more than 100 µM in each case.
As to `[N-]=[NH+]CC(=O)OC(COCc1ccccc1)COCc1ccccc1`, the TGI with HOP-62 NSCLC was more than 100 µM; in the test on MDA-MB-435, more than 100 µM; in the test with U251 CNS, more than 100 µM; in the test with LOX IMVI melanoma, more than 100 µM; in the test with KM12 colon it was 86.2 µM; with BT-549 breast, more than 100 µM. The TGI with SK-OV-3 ovarian, in the test with UACC-257 melanoma, with HT29 colon, in the test with DU-145 prostate, in the test on MDA-MB-231 breast and in the test on UACC-62 melanoma was more than 100 µM throughout. In addition, the TGI in the test on SN12C renal and in the test with SK-MEL-5 melanoma was more than 100 µM each time.
Consider `COC(=O)C1=C(\c2ccccc2)c2ccccc2C(=O)N(C2CCCCC2)/C=C\1`, for which the TGI in the test on HOP-62 NSCLC stood at 45.3 µM; in the test on MDA-MB-435 it was 45.1 µM; in the test on U251 CNS, 63.1 µM; with LOX IMVI melanoma it was 37.7 µM; in the test on KM12 colon, 45.8 µM; with BT-549 breast it was 74.6 µM. For the same molecule, the TGI in the test on SK-OV-3 ovarian is more than 100 µM; in the test with UACC-257 melanoma, 41.5 µM; in the test on HT29 colon it was more than 100 µM; with DU-145 prostate it was more than 100 µM; in the test on MDA-MB-231 breast, 45.1 µM; in the test on SN12C renal it was more than 100 µM. Further, the TGI in the test on SK-MEL-5 melanoma stood at 24.3 µM.
As to `O=C1c2ccccc2C2=Nc3ccncc3CN12`, the TGI in the test with HOP-62 NSCLC, in the test with U251 CNS, in the test on KM12 colon, in the test with BT-549 breast, in the test with SK-OV-3 ovarian and in the test with UACC-257 melanoma was more than 100 µM each time. Moreover, the TGI with HT29 colon, in the test on DU-145 prostate, with UACC-62 melanoma, in the test on SN12C renal and in the test on SK-MEL-5 melanoma was more than 100 µM throughout.
On to `Cc1cc(NCCCCCCCCCC[n+]2c(C)cc(N)c3ccccc32)c2ccccc2n1`, for which the TGI with HOP-62 NSCLC is 30.1 µM; in the test with MDA-MB-435 it was 5.86 µM; with U251 CNS, 4.3 µM; with KM12 colon it was 2.4 µM; with BT-549 breast it was more than 100 µM; in the test with SK-OV-3 ovarian, 12.9 µM. Also, the total growth inhibition concentration (TGI) in the test with HT29 colon is more than 100 µM; with DU-145 prostate, 22.3 µM; in the test on MDA-MB-231 breast, 5.61 µM; in the test on UACC-62 melanoma, 4.17 µM; in the test with SN12C renal it was 5.85 µM; with SK-MEL-5 melanoma it was 0.695 µM.
For `COc1cc(Nc2cnc3cc(F)c(F)cc3n2)cc(OC)c1`, the TGI in the test on HOP-62 NSCLC, with MDA-MB-435, with U251 CNS, in the test with LOX IMVI melanoma, in the test with KM12 colon and with BT-549 breast was more than 100 µM throughout. Also, the TGI in the test on SK-OV-3 ovarian is 79.1 µM; in the test on UACC-257 melanoma it was more than 100 µM; in the test with HT29 colon, more than 100 µM; in the test on DU-145 prostate it was more than 100 µM; in the test with HS 578T breast, more than 100 µM; in the test on UACC-62 melanoma it was more than 100 µM. The TGI with SN12C renal and with SK-MEL-5 melanoma was more than 100 µM in each case.
For the molecule `Cc1nn(-c2ccccc2)c2[nH]c(=S)cnc12`, the TGI with HOP-62 NSCLC, in the test with MDA-MB-435, with U251 CNS, in the test with LOX IMVI melanoma, in the test with BT-549 breast and with SK-OV-3 ovarian was more than 100 µM throughout. In addition, the TGI in the test with UACC-257 melanoma, in the test on HT29 colon, with DU-145 prostate, in the test with HS 578T breast, in the test on UACC-62 melanoma and with SN12C renal was more than 100 µM in each case.
On to `CN(C(=O)Cc1ccc(Cl)c(Cl)c1)[C@@H]1CCCC[C@H]1[N+]1(C)CC=CC1`, for which the TGI in the test on HOP-62 NSCLC, in the test on MDA-MB-435, in the test with U251 CNS, with LOX IMVI melanoma, in the test with KM12 colon and in the test with BT-549 breast was more than 100 µM in each case. Besides, the concentration for total growth inhibition (TGI) in the test on SK-OV-3 ovarian, in the test on UACC-257 melanoma, in the test on HT29 colon, in the test with DU-145 prostate, in the test with MDA-MB-231 breast and with UACC-62 melanoma was more than 100 µM each time. For the same molecule, the TGI in the test on SN12C renal and in the test with SK-MEL-5 melanoma was more than 100 µM throughout.
As for `O=C(C[n+]1ccccc1)N=N/C(C(=O)Nc1c(Cl)c(O)c2ccccc2c1O)=C1/C(=O)Oc2cc(O)ccc2C1=O`, the TGI with HOP-62 NSCLC was 22.4 µM; in the test with U251 CNS, 45.9 µM; with LOX IMVI melanoma, more than 100 µM; in the test with KM12 colon it was more than 100 µM; in the test with BT-549 breast, 18.3 µM; in the test on SK-OV-3 ovarian, 27.9 µM. For the same molecule, the concentration for total growth inhibition (TGI) in the test with UACC-257 melanoma was determined as 12.1 µM; with HT29 colon it was 15.3 µM; with DU-145 prostate, 12.4 µM; in the test on MDA-MB-231 breast, 61.4 µM; with UACC-62 melanoma it was 4.14 µM; with SN12C renal it was 15.1 µM. Moreover, the TGI in the test with SK-MEL-5 melanoma is 2.26 µM.
On to `CCOC(=O)c1c(-c2ccc(O)c(OC)c2)c(C#N)c(=S)n(C2OC(COC(C)=O)C(OC(C)=O)C(OC(C)=O)C2OC(C)=O)c1-c1ccccc1` (stereo unspecified), for which the TGI in the test on HOP-62 NSCLC, with MDA-MB-435, in the test on U251 CNS, with LOX IMVI melanoma, in the test with KM12 colon and in the test on BT-549 breast was more than 100 µM each time. Also, the total growth inhibition concentration (TGI) in the test with UACC-257 melanoma, with HT29 colon, with DU-145 prostate, in the test with HS 578T breast, in the test with UACC-62 melanoma and in the test with SN12C renal was more than 100 µM in each case. Further, the TGI in the test with SK-MEL-5 melanoma is 65.6 µM and > 100 µM. Further, the GI50 (in general, the concentration giving 50% growth inhibition) in the test with UACC-62 melanoma was 45.4 µM and > 100 µM; with SK-MEL-5 melanoma, 21.9 µM and 47.2 µM.
Regarding `CCOP(=O)(OCC)c1ccc(=O)[nH]c1-c1cccs1`, the TGI in the test with HOP-62 NSCLC, in the test with MDA-MB-435, with U251 CNS, with KM12 colon, in the test on BT-549 breast and with SK-OV-3 ovarian was more than 100 µM in each case. Further, the TGI with UACC-257 melanoma, in the test on HT29 colon, in the test with DU-145 prostate, in the test with HS 578T breast, with UACC-62 melanoma and in the test on SN12C renal was more than 100 µM each time. The TGI in the test with SK-MEL-5 melanoma was more than 100 µM.
As for `CCCCCCCCCCCCC(O)C1CCC(C(O)CCCCCCC(O)CCCCCCCC2=CC(C)OC2=O)O1` (stereo unspecified), the TGI with HOP-62 NSCLC is more than 100 µM; with MDA-MB-435, more than 100 µM; in the test with U251 CNS, more than 100 µM; in the test on LOX IMVI melanoma, 39.8 µM; in the test on KM12 colon it was more than 100 µM; with BT-549 breast, more than 100 µM. Moreover, the TGI is 85.9 µM in the test on UACC-257 melanoma, more than 100 µM in the test on MDA-MB-231 breast, 83.1 µM in the test on SN12C renal and 22.2 µM with SK-MEL-5 melanoma. Also, the figures for the GI50 with MDA-MB-435, in the test with BT-549 breast and in the test with UACC-257 melanoma were 27 µM, 34.6 µM and 12.1 µM, respectively.
As to `C=C(Br)CN(C(C)=O)C1CCCCC1`, the TGI in the test with HOP-62 NSCLC, in the test on MDA-MB-435, with U251 CNS, in the test on LOX IMVI melanoma, in the test with KM12 colon and in the test with SK-OV-3 ovarian was more than 100 µM in each case. Further, the TGI with UACC-257 melanoma, in the test with HT29 colon, in the test with DU-145 prostate, in the test with HS 578T breast, with MDA-MB-231 breast and with UACC-62 melanoma was more than 100 µM throughout. The concentration for total growth inhibition (TGI) in the test with SN12C renal and in the test on SK-MEL-5 melanoma was more than 100 µM throughout.
As to `COc1ccc(/C=C2\CCCCCC2=O)cc1`, the TGI with HOP-62 NSCLC, in the test with MDA-MB-435, in the test on U251 CNS, with LOX IMVI melanoma, in the test on KM12 colon and in the test on BT-549 breast was more than 100 µM throughout. For the same molecule, the TGI in the test with SK-OV-3 ovarian, with UACC-257 melanoma, in the test with HT29 colon, in the test on DU-145 prostate, with MDA-MB-231 breast and with UACC-62 melanoma was more than 100 µM in each case. Also, the TGI in the test on SN12C renal and in the test with SK-MEL-5 melanoma was more than 100 µM in each case.
